Where two headings read alike, the source gives them in different places.
Assay: Rat PK study #3 (ABBV-744 IV 1 mg/kg and PO 5 mg/kg)
Format: in vivo, SD rats
Settings: male, Sprague-Dawley, rat, plasma, SD rats, DMSO/PEG-400/Milli-Q water formulation; for C0: read-out: C0; for MRT inf: read-out: MRTInf_obs; for Tmax: read-out: Tmax
Experimental: For the third rat pharmacokinetic study, the pharmacokinetics of ABBV-744 were assessed in male SD rats for comparison to Compound A. ABBV-744 was prepared in a formulation of 5% DMSO, 40% PEG-400, and 55% Milli-Q water (see Table 2D for formulation) and delivered to animals orally (PO) at a dose of 5 mg/kg, or intravenously (IV) at a dose of 1 mg/kg. Animals in each group (n=3) were then monitored over a 24-hour period.
Blood samples (~0.2 mL) were collected according to a schedule (IV administration: 0.033, 0.083, 0.25, 0.5, 1, 2, 4, and 8 h following the initial dosing; PO administration: 0.083, 0.25, 0.5, 1, 2, 4, 8, and 24 h following the initial dosing) by jugular vein by cannulation except for the dosing vein (for IV group), and EDTA-K2 was used as anticoagulant. Within 30 minutes of collection, the samples were centrifuged at approximately 4000 times g-force for 5 minutes at 4° C. to obtain blood plasma. The plasma samples were immediately divided into two aliquots (~75 µL each), transferred to a cryogenic vial, and stored in a freezer at −75±15° C. prior to analysis.
The concentration of ABBV-744 in plasma samples was determined by liquid chromatography-mass spectrometry (LC-MS/MS) using a Shimadzu HPLC(DGU-405; LC-40D XS CN; SIL-40C XSCN; Plate Changer CN; CTO-40C CN; and CBM-40 CN) and an AB API 5500+LC/MS/MS instrument. Samples were analyzed on an Agilent Poroshell Bonus RP 2.7 μm (50×2.1 mm) column. Solution A in the mobile phase was 95% water (0.1% formic acid) and solution B was 95% acetonitrile in water (0.1% formic acid), injection volume was 6 μL, and flow rate was 0.6 mL/min.
To prepare samples for analysis, serial concentrations were prepared by diluting the stock solution of analyte with a 50% acetonitrile in water solution. 5 μL working solutions (5, 10, 20, 50, 100, 500, 1000, 5000, and 10000 ng/mL) were added to 50 μL of the blank SD rat plasma to achieve calibration standards of ~0.5 to 1000 ng/ml (0.5, 1, 2, 5, 10, 50, 100, 500, and 1000 ng/ml) in a total volume of 55 μL. Five quality control samples at 1 ng/ml, 2 ng/ml, 5 ng/ml, 50 ng/mL, and 800 ng/ml for plasma were prepared independently of those used for the calibration curves. These QC samples were prepared on the day of analysis in the same way as calibration standards.
55 μL of standards, 55 μL of QC samples and 55 μL of unknown samples (50 μL of unknown rat plasma with 5 µL of blank solution) were added to 200 µL of acetonitrile containing IS mixture (verapamil) for precipitating protein respectively. The samples were then vortexed for 30 s. After centrifugation at 4° C., 3900 rpm for 15 min, the supernatant was diluted 3 times with water. 6 μL of diluted supernatant was injected into the LC/MS/MS system for quantitative analysis.

[1] = iv, 1 mg/kg, IV 1 mg/kg, individual animals
[2] = iv, 1 mg/kg, IV 1 mg/kg, mean of 3 animals
[3] = po, 5 mg/kg, PO 5 mg/kg, mean of 3 animals

## CCNC(=O)c1cc2c(-c3cc(C(C)(C)O)ccc3Oc3c(C)cc(F)cc3C)cn(C)c(=O)c2[nH]1 [ABBV-744]
[1]
  concentration at 0.083 h: 351 ng/mL
  concentration at 0.25 h: 248 ng/mL
  concentration at 0.5 h: 191 ng/mL
  concentration at 1 h: 158 ng/mL
  concentration at 2 h: 103 ng/mL
  concentration at 4 h: 48 ng/mL
  concentration at 8 h: 12.6 ng/mL
  AUC(0-inf): 669 ng·h/mL
  AUC(0-t): 633 ng·h/mL
  half-life: 1.99 h
  C0: 580 ng/mL
  MRT inf: 2.47 h
[2]
  concentration at 0.083 h: 337 ng/mL
  concentration at 0.25 h: 268 ng/mL
  concentration at 0.5 h: 203 ng/mL
  concentration at 1 h: 154 ng/mL
  concentration at 2 h: 110 ng/mL
  concentration at 4 h: 52.9 ng/mL
  concentration at 8 h: 15.3 ng/mL
  AUC(0-inf): 716 ng·h/mL
  AUC(0-t): 668 ng·h/mL
  half-life: 2.12 h
  C0: 613 ng/mL
  MRT inf: 2.65 h
[3]
  concentration at 0.083 h: 1.61 ng/mL
  concentration at 0.25 h: 19.3 ng/mL
  concentration at 0.5 h: 43 ng/mL
  concentration at 1 h: 59 ng/mL
  concentration at 2 h: 89 ng/mL
  concentration at 4 h: 127 ng/mL
  concentration at 8 h: 113 ng/mL
  AUC(0-t): 1730 ng·h/mL
  Tmax: 5.33 h
po, 5 mg/kg, PO 5 mg/kg, 24 h, mean of 3 animals
  concentration at 24 h: 2.17 ng/mL
po, 5 mg/kg, PO 5 mg/kg, individual animals
  Tmax: 8 h
po, 5 mg/kg, PO 5 mg/kg, mean of 3 animals, read-out: Cmax
  Cmax: 132 ng/mL

Source: US20260217701A1, “SELECTIVE BET INHIBITORS AND USES THEREOF” (Tay Therapeutics Limited, priority 2022, published 2026)
